Here are results for nine compounds from patent publication US20240158339A1, “TYRAMINE CONTAINING HYDROXYCINNAMIC ACID AMIDE DERIVATIVES AND METHODS OF USE THEREOF” (Brightseed, Inc., priority 2018, published 2024).

One data set concerns the target T1, HNF4α (Homo sapiens, UniProt P41235).
T1 construct: T6PNE cells (Kiselyuk, et al. (2012) Chem. Biol. 19(7):806-818; Kiselyuk, et al. (2010) J. Biomol; endogenous in cells; host or cells: T6PNE cells
T1 sequence (P41235 1-474): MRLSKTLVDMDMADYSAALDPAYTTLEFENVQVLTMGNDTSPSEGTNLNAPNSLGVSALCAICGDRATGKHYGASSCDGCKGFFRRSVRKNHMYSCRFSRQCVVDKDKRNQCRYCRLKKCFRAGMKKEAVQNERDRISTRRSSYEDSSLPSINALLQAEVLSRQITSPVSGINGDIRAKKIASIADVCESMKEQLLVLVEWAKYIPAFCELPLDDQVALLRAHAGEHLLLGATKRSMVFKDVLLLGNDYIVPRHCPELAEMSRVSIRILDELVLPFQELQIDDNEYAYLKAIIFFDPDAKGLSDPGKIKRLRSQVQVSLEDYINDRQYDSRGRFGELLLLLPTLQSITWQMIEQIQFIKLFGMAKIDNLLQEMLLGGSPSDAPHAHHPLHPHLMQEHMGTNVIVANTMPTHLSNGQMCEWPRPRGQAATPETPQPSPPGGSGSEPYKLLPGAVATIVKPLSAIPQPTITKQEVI
Kind of data set: Insulin promoter activity assay (HNF4α assay) in T6PNE cells. It is filed as cell-based. The following applies: for HNF4α activation / bioactivity (screening result in words): HNF4α assay, screening and SAR statements. As for the experimental part: Insulin Promoter Activity. T6PNE cells (Kiselyuk, et al. (2012) Chem. Biol. 19(7):806-818; Kiselyuk, et al. (2010) J. Biomol. Screen 15(6):663-70) are seeded at 2000 cells per well in 384-well tissue culture plates in the presence of 1 μM tamoxifen and 0.03 mM palmitate. After a 24-hour incubation, a compound of the invention is added to the cells. Forty-eight hours after compound addition, cells are fixed in 4% paraformaldehyde and stained with DAPI. Blue (DAPI) and green (human insulin promoter driving GFP) channels are imaged.
Inhibition of HNF4α GFP Expression. Using the insulin promoter assay described herein, activity of HNF4α was assessed in the presence of BI-6015 (0, 2.5, 5 μM), a known antagonist of HNF4α (Kiselyuk, et al. (2012) Chem. Biol. 19(7):806-818), in combination with N-trans-caffeoyltyramine (0, 5, 10, 20 μM).
Given the role of HNF4α in maintaining a health metabolism in humans, test compounds were screened for activity as HNF4α agonists (either direct or indirect effects). Using a known insulin promoter-reporter assay Kiselyuk and colleagues (2010. J. Biomol. Screen 15(6):663-70) screened a library of compounds for activity to promote insulin activation. […] The OTC promoter is known to be responsive to HNF4α in transient transfection assays (Inoue, et al. (2002) J. Biol. Chem. 277:25257-65).
Plant compounds in the top 10th percentile of similarity to the 18 target structures were selected and compounds predicted to be potential agonists of HNF4α activity given their chemical structural features were screened in the HNF4α assay.

The subject of the next data set is HNF4α mRNA. Nature of the data set: HNF4α mRNA levels by quantitative PCR. It is filed as cell-based. The following applies: FIG. 3. The procedure: (§1) Expression of Insulin and HNF4α. RNA was purified using a RNEASY® chromatographic separation and isolation kits (Qiagen), and converted to cDNA using the gScript™ cDNA SuperMix (Quanta Biosciences). Q-PCR was conducted with cDNA corresponding to 2 μg of RNA using an Opticon Real-Time System (MJ Research) and QPCR SuperMix (BioPioneer). See All mRNA values were normalized to 18S rRNA values and are expressed as fold changes over vehicle-treated control.

In a further data set the test system is insulin mRNA. Kind of data set: Insulin mRNA levels by quantitative PCR. It is filed as cell-based. The following applies: FIG. 2. As for the experimental part:
as §1

Data set [1] can be described thus: Bioavailability determination in male C57BL/6 mice. The conditions noted are these: IV 2 mg/kg vs oral or IP 30 mg/kg, route not stated in Table 3.
Another data set relates to E47MER. Kind of data set: Counter-screen for estrogenic activity (E47MER luciferase reporter in HeLa cells). It is filed as cell-based, human. The conditions noted are these: with 1 μM or without tamoxifen, FIG. 5. As for the experimental part:
Counter-Screen for Estrogenic Activity. Estrogenic activity was monitored by co-transfection of a reporter plasmid containing a multimerized E-box 5′ of a minimal promoter fused to the Firefly luciferase gene with wild-type E47 or E47MER (Kiselyuk, et al. (2010) J. Biomol. Screen 15(6):663-70). HeLa cells were transfected using polyethylenimine, 0.2 μg 4RTK-Luc plasmid and either 0.3 μg of human E47, E47MER or pMSCVhph vector in 50 μl of serum-free Dulbecco's modification of Eagle medium per well. Transfections included Renilla luciferase (pRL-TK) plasmid as a control for transfection efficacy. Transfection conditions were as described in the PPRE-Luc reporter assay of Kiselyuk, et al. ((2010) J. Biomol. Screen 15(6):663-70). Sixteen hours after transfection, culture media were changed and maintained for 48 hours with tamoxifen and/or compound or vehicle (DMSO). Cells were then lysed and assayed for luciferase activity using the Promega DUAL-LUCIFERASE® reporter assay kit (Promega Corp., Madison, WI), and luminescence was measured using the Veritas™ Microplate Luminometer (Turner Biosystems, Sunnyvale, CA). Data were normalized to Renilla luciferase (pRL-TK) and expressed as fold-change over vehicle alone.
In general terms: The purpose of a counterscreen is to sort out artefacts and off-target activity.

A further data set deals with T6PNE cells. Kind of data set: Lipid clearance (steatosis assay) in T6PNE cells. It is filed as cell-based. The conditions noted are these: for fat accumulation: T6PNE cells, 0.25 mM palmitate, 10 μM compound. As for the experimental part:
T6PNE cells were pretreated for 1 day with 0.06 mM, 0.12 mM or 0.25 mM palmitate at which time 15 μM N-trans-caffeoyltyramine or control (DMSO) was added. Cells were harvested on day 3, 6 and 8 and subjected to staining with Nile Red and […]. Results are expressed as fold change in Nile Red staining: +palmitate/10% FBS medium (no palmitate).
(§2) Lipid Clearance in HepG2 and T6PNE Cells (Steatosis Assay). The steatosis assay was carried out as described (Kiselyuk, et al. (2012) Chem. Biol. 19(7):806-818) with the exception of the drug concentration, which was 20 μM for N-trans-caffeoyltyramine with 0.25 mM palmitate in HepG2 cell lines, and 10 μM of either N-trans-caffeoyltyramine, N-trans-caffeoyltyramine, or p-coumaroyltyramine, with 0.25 mM palmitate in T6PNE cell lines. Steatosis was assessed using the Oil Red O Method for Fats kits (Poly Scientific; Warrington, PA), per manufacturer's guidelines. Briefly, frozen tissue slides or fixed cells were incubated in neat propylene glycol for 2 minutes and Oil Red O solution for […] for slides or 1 hour for fixed cells, differentiated in 85% propylene glycol solution for 1 minute, washed twice with distilled water and stained in Hematoxylin of 10 seconds. Slides were mounted with glycerin jelly mounting medium.

The test system of a further data set is HepG2 cells. Kind of data set: Lipid clearance (steatosis assay) in HepG2 cells. It is filed as cell-based. The conditions noted are these: HepG2 liver cells, 20 μM. The procedure:
as §2

A short description of another data set: pH stability assessment. It is filed as physicochemical. The conditions noted are these: pH 2, 7.4, 8.5 and 10, 37° C., 0.5 vs 72 hours. As for the experimental part: pH Stability Assessment. Individual stock solutions were prepared in DMSO at concentrations of 10 mg/mL. Four different buffer solution s were prepared to achieve solutions with a pH of 2, 7.4, 8.5 and 10. For each pH assay, 5 μL of stock solution was added to 245 μL of buffered solution to a 2 mL tube, vortexed and incubated in a 37° C. water bath. At each timepoint, 50 μL aliquots were taken, neutralized and analyzed via HPLC analysis using a DAD detector at 280 nm. The fold change of the peak area at 280 nm was analyzed for the initial and final timepoint, 0.5 and 72 hours, respectively.

The structures appear in SMILES notation. “Also recorded” adds a separate entry of the source.

For `O=C(C=CCCc1ccccc1)CCc1ccccc1` [1,7-diphenylhept-4-en-3-one], the “HNF4α activation / bioactivity (screening result in words)” value (“HNF4α activation / bioactivity” for short) at HNF4α was “complete loss of bioactivity”.

Regarding `Cc1ccc([N+](=O)[O-])cc1S(=O)(=O)n1c(C)nc2ccccc21` [BI-6015, reference compound], on HNF4α (BI-6015 0, 2.5, 5 μM with N-trans-caffeoyltyramine 0, 5, 10, 20 μM, FIG. 4), the “effect on N-trans-caffeoyltyramine-mediated increases in insulin expression” value is given as “inhibited”.

As to `O=C(C=Cc1ccccc1)NCCc1ccccc1` [N-2-phenylethylcinnamide], the “HNF4α activation / bioactivity” value on HNF4α was “complete loss of bioactivity”.

As to `O=C(/C=C/c1ccc(O)cc1)NCCc1ccc(O)c(O)c1` [N-coumaroyldopamine], the HNF4α gene expression result with HNF4α mRNA is “inactive”. Also, the insulin gene expression entry with insulin mRNA was “inactive”. The “HNF4α activation / bioactivity” value on HNF4α is recorded as “complete loss of HNF4α activation”.

On to `COc1cc(/C=C/C(=O)NCC(O)c2ccc(O)cc2)ccc1O` (stereo not drawn) [N-trans-feruloyloctopamine], for which the HNF4α gene expression result with HNF4α mRNA is “inactive”. Moreover, the insulin gene expression entry with insulin mRNA was “inactive”. Moreover, the “HNF4α activation / bioactivity” value on HNF4α is “complete loss of HNF4α activation”.

On to `COc1cc(/C=C/C(=O)NCCc2ccc(O)cc2)ccc1O` [N-trans-feruloyltyramine], for which the bioavailability in data set [1] is roughly 7%. For the same compound, the estrogenic activity result in the data set with E47MER was “did not exhibit estrogenic activity”. In addition, the HNF4α gene expression entry in the data set on HNF4α mRNA was “upregulated”. Besides, the “lipid accumulation when palmitate was added prior to compound” value in the data set on T6PNE cells (T6PNE cells pretreated 1 day with 0.06-0.25 mM palmitate, 15 μM compound, Nile Red, FIG. 6) is “can reverse fat accumulation”. The fat accumulation entry with T6PNE cells is reported as “inhibition of fat accumulation”. Besides, the “clearing of fats, Oil Red O staining” value with HepG2 cells was “capable of clearing harmful fats from the liver”. Also, in the data set on HepG2 cells (0.25 mM palmitate), the accumulation of fats entry is given as “inhibited accumulation of fats”. Besides, the insulin gene expression entry in the data set on insulin mRNA is “upregulated”. In addition, in “pH stability assessment”, the “pH Stability” value was “Stable”. Moreover, the “HNF4α activation / bioactivity” value at HNF4α is recorded as “able to act as HNF4α modulators; also recorded: reduces but does not eradicate bioactivity”.

`COc1cc(/C=C\C(=O)NCCc2ccc(O)cc2)ccc1O` [cis-feruloyltyramine]: in the data set on HNF4α mRNA, the HNF4α gene expression entry is “inactive”. In addition, the insulin gene expression result with insulin mRNA is “inactive”. Besides, the “HNF4α activation / bioactivity” value at HNF4α was “complete loss of HNF4α activation”.

For the compound `O=C(/C=C/c1ccc(O)cc1)NCC(O)c1ccc(O)cc1` (centres unmarked) [p-coumaroyloctopamine], the HNF4α gene expression result in the data set on HNF4α mRNA is “inactive”. Besides, the insulin gene expression result in the data set on insulin mRNA was “inactive”.

As to `O=C(/C=C/c1ccc(O)cc1)NCCc1ccc(O)cc1` [p-coumaroyltyramine], in the data set on HNF4α mRNA, the HNF4α gene expression result was “upregulated”. In addition, the fat accumulation result in the data set on T6PNE cells is on record as “inhibition of fat accumulation”. Moreover, in the data set on insulin mRNA, the insulin gene expression result was “upregulated”. Further, the entries for the “HNF4α activation / bioactivity” value at HNF4α and on HNF4α (listed as N-trans-coumaroyltyramine) were “able to act as HNF4α modulators” and “additional reduction but not eradication of bioactivity”, respectively.

As a reminder, the bioavailability is the share of a dose that reaches the circulation, judged against a reference dose that is usually intravenous. The low end stands for poor availability, the high end for good availability.
